The nature of data set [1]: DRUGMATRIX: beta-Lactamase enzyme inhibition (substrate: Nitrocefin). Further details: species or system Bacillus cereus. As to conditions: Not Active = under 50% inhibition at 10 µM.
The next data set deals with Substance-P receptor (Homo sapiens, UniProt P25103). It is filed as cell membranes, Membrane. Conditions: cho.
Data set [2] concerns the target Vascular endothelial growth factor receptor 1 (Homo sapiens, UniProt P17948). Description: biochemical. Type of data set: cell-based, HUVEC. As to conditions: huvec. Further: in other assays of this panel Not Active means under 50% inhibition at 10 µM.
For a further data set, the target named is Melanocortin receptor 5 (Homo sapiens, UniProt P33032). Type of data set: cell membranes, HEK293, Membrane. As to conditions: hek293. Further: in other assays of this panel Not Active means under 50% inhibition at 10 µM.
Chain of Melanocortin receptor 5 (P33032 whole entry): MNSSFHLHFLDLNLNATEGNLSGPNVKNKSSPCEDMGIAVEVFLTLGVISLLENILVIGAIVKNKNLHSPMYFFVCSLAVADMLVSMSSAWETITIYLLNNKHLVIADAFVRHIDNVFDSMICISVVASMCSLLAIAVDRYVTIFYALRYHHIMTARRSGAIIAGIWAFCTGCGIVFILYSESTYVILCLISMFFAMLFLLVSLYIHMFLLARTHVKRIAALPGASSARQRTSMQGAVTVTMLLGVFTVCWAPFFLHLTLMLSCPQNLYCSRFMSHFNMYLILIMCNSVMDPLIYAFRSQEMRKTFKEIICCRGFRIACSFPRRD
Data set [3] addresses Mitogen-activated protein kinase 3 (Homo sapiens, UniProt P27361). Description: DRUGMATRIX: Protein Serine/Threonine Kinase, ERK1 enzyme inhibition (substrate: Myelin Basic Protein). The arrangement: species or system Escherichia coli. Conditions: Not Active = under 50% inhibition at 10 µM.
In data set [4] the target is T1, Receptor-type tyrosine-protein phosphatase C (Homo sapiens, UniProt P08575).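 Further: inhibition of CD45 enzyme activity measured using DiFMUP as substrate; in other assays of this panel Not Active means under 50% inhibition at 10 µM.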
T1 sequence (P08575 whole entry): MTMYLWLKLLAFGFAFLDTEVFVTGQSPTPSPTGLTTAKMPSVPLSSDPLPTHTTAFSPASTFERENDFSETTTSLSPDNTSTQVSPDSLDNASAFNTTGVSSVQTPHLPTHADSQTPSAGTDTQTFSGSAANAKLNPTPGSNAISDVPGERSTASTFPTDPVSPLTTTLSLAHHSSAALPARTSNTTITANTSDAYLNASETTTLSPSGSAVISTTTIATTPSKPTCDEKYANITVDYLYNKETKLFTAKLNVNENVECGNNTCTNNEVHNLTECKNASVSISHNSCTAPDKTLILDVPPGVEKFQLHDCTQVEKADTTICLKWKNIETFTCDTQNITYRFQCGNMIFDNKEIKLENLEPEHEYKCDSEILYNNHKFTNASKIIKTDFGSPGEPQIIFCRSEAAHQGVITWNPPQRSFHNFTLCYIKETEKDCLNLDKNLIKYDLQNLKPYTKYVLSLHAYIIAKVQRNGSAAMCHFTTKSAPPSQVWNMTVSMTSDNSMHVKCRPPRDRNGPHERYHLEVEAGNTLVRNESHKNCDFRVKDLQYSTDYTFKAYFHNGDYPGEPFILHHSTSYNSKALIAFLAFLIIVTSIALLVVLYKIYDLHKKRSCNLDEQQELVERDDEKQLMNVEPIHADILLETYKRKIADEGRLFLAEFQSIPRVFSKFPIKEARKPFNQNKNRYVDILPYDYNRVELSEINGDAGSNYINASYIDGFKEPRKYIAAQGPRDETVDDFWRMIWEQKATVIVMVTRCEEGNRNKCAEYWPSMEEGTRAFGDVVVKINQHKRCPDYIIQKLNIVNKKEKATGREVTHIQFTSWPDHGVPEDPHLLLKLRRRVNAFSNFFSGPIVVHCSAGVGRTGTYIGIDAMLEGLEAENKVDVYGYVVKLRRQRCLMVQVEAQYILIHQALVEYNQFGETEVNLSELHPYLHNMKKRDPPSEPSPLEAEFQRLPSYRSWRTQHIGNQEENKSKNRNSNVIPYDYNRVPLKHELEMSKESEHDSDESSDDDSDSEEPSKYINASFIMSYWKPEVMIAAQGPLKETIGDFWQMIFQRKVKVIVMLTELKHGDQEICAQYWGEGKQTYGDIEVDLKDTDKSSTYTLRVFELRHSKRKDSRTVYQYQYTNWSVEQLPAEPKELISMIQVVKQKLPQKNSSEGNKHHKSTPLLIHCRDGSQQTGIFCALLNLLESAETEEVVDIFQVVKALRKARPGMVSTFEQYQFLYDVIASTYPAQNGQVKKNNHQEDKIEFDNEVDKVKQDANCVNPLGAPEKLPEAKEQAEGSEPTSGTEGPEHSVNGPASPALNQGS
Further details: species or system Escherichia coli.

The next data set deals with T2, Cytochrome P450 2A6 (Homo sapiens, UniProt P11509).
T2 sequence (P11509 whole entry): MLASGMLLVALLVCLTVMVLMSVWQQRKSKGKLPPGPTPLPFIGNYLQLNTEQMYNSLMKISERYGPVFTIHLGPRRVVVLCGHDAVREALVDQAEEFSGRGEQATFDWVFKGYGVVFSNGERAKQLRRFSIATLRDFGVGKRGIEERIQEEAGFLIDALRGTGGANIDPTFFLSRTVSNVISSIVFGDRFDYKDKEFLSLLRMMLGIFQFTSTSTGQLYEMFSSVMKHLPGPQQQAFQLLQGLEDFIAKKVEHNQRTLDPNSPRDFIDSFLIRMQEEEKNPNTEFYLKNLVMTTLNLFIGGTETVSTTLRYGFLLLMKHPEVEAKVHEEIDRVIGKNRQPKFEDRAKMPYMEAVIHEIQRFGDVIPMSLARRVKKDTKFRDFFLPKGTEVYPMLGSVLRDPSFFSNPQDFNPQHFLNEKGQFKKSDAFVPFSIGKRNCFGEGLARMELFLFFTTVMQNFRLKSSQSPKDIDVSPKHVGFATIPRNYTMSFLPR
Conditions: bti-tn-5b1-4.

Chain of Vascular endothelial growth factor receptor 1 (P17948 whole entry): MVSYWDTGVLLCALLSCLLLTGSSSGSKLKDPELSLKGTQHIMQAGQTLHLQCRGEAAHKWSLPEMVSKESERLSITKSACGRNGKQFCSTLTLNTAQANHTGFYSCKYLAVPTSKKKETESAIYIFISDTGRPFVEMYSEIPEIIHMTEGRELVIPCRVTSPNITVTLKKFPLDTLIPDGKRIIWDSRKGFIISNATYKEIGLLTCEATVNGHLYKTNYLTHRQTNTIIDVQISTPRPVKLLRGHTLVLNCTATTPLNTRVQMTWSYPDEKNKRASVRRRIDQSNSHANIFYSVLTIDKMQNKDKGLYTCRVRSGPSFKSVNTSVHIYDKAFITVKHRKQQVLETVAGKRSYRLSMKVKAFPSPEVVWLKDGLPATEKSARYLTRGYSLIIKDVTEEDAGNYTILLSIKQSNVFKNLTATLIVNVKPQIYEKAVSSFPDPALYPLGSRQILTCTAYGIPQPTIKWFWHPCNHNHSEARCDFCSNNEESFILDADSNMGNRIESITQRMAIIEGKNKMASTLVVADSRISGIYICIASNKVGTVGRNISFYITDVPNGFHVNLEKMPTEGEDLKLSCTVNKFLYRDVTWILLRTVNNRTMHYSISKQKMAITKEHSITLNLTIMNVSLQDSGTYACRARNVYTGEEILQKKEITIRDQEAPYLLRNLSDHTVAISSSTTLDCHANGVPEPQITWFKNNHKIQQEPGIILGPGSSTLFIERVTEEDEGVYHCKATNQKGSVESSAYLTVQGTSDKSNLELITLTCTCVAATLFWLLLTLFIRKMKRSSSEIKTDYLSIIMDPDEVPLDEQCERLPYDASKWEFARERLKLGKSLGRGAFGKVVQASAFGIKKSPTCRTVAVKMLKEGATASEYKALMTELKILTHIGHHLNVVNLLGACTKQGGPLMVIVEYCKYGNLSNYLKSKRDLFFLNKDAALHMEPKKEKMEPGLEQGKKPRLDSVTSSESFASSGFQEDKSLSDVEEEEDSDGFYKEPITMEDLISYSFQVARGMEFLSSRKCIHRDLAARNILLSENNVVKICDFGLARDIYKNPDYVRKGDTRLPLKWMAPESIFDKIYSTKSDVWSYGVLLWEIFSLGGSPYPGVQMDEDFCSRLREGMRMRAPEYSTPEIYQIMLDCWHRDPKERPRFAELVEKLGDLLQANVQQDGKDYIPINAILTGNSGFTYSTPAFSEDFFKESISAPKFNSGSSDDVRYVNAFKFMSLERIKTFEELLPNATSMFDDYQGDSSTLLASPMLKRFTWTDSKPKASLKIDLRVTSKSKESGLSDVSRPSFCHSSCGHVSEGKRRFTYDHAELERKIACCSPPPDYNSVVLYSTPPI
Chain of Substance-P receptor (P25103 whole entry): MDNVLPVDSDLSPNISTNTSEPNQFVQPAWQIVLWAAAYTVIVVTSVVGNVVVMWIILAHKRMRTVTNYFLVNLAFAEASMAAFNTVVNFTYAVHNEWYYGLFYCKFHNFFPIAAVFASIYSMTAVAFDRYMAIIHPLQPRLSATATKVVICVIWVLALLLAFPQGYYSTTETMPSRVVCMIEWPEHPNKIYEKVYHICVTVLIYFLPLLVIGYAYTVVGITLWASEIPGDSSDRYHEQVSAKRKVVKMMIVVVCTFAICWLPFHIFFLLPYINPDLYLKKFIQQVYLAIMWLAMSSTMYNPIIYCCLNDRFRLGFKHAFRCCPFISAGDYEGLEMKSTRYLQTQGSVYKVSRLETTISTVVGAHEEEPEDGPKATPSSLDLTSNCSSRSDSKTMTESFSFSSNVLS
Chain of Mitogen-activated protein kinase 3 (P27361 whole entry): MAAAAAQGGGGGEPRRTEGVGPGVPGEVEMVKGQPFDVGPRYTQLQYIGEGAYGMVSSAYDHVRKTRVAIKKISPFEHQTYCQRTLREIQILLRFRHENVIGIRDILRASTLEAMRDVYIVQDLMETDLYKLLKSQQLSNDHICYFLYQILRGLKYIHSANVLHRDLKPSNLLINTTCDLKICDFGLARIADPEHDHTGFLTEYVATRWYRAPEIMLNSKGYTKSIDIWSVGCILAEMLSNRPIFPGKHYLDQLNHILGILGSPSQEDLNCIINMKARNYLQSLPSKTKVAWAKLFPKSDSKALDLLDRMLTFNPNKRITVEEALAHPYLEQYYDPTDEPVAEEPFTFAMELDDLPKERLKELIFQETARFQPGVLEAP

On to `[N-]=[N+]=CC(=O)OC[C@H](N)C(=O)O` [AZASERINE], for which the IC50 entry (in data set [1]; at Substance-P receptor; in data set [2]; at Melanocortin receptor 5; in data set [3]; in data set [4]) was “Not Active” throughout. Also, the IC50 (in general, the concentration needed to halve the response being measured) on Cytochrome P450 2A6 is on record as “Not Active”. For the same molecule, the Ki entry (in data set [1]; at Cytochrome P450 2A6) was “Not Active” throughout.
As to `CC[C@H]1OC(=O)[C@H](C)[C@@H](O[C@H]2C[C@@](C)(OC)[C@@H](O)[C@H](C)O2)[C@H](C)[C@@H](O[C@@H]2O[C@H](C)C[C@H](N(C)C)[C@H]2O)[C@](C)(O)C[C@@H](C)CN(C)[C@H](C)[C@@H](O)[C@]1(C)O` [AZITHROMYCIN], the IC50 entry (in data set [1]; against Substance-P receptor; in data set [2]; against Melanocortin receptor 5; in data set [3]; in data set [4]) was “Not Active” in each case. Moreover, on Cytochrome P450 2A6, the IC50 entry is “Not Active”. Besides, the Ki result (in data set [1]; at Cytochrome P450 2A6) was “Not Active” throughout.
Consider `O=c1cc(-c2ccccc2)oc2ccc3ccccc3c12` [BETA-NAPHTHOFLAVONE], for which the concentration for half-maximal inhibition (IC50) entry in data set [1] was “Not Active”; against Substance-P receptor it was “Not Active”; in data set [2], “Not Active”; against Melanocortin receptor 5, “Not Active”; in data set [3] (read-out: IC50), 5.47 µM; in data set [4] it was “Not Active”. For the same molecule, on Cytochrome P450 2A6, the half-inhibitory concentration (IC50) result is “Not Active”. Also, the Ki entry (in data set [1]; on Cytochrome P450 2A6) was “Not Active” each time.
As for `CS(=O)(=O)OCCCCOS(C)(=O)=O` [BUSULFAN], the IC50 result (in data set [1]; at Substance-P receptor; in data set [2]; against Melanocortin receptor 5; in data set [3]; in data set [4]) was “Not Active” in each case. The IC50 result at Cytochrome P450 2A6 is given as “Not Active”. Further, the Ki entry (in data set [1]; on Cytochrome P450 2A6) was “Not Active” in each case.
On to `NC(=O)N1c2ccccc2C=Cc2ccccc21` [CARBAMAZEPINE], for which the half-inhibitory concentration (IC50) result (in data set [1]; at Substance-P receptor; in data set [2]; against Melanocortin receptor 5; in data set [3]; in data set [4]) was “Not Active” in each case. The half-maximal inhibitory concentration (IC50) entry against Cytochrome P450 2A6 is listed as “Not Active”. For the same molecule, the Ki result (in data set [1]; on Cytochrome P450 2A6) was “Not Active” each time.
As for `CCC[C@@H]1C[C@@H](C(=O)N[C@@H]([C@H]2O[C@H](SC)[C@H](O)[C@@H](O)[C@H]2O)[C@H](C)Cl)N(C)C1` [CLINDAMYCIN], the half-maximal inhibitory concentration (IC50) result (in data set [1]; at Substance-P receptor; in data set [2]; against Melanocortin receptor 5; in data set [3]; in data set [4]) was “Not Active” throughout. Also, the Ki result in data set [1] is recorded as “Not Active”.
As to `O=C(O)c1cc(=O)c2c(OCC(O)COc3cccc4oc(C(=O)O)cc(=O)c34)cccc2o1` [CROMOLYN], the IC50 result (in data set [1]; against Substance-P receptor; in data set [2]; against Melanocortin receptor 5; in data set [3]; in data set [4]) was “Not Active” each time. For the same molecule, on Cytochrome P450 2A6, the concentration for half-maximal inhibition (IC50) entry is “Not Active”. Moreover, the Ki entry (in data set [1]; at Cytochrome P450 2A6) was “Not Active” throughout.
With `CC(=O)O[C@]1(C(C)=O)CC[C@H]2[C@@H]3C=C(Cl)C4=CC(=O)[C@@H]5C[C@@H]5[C@]4(C)[C@H]3CC[C@@]21C` [CYPROTERONE ACETATE], the IC50 entry (in data set [1]; at Substance-P receptor; in data set [2]; against Melanocortin receptor 5; in data set [3]; in data set [4]) was “Not Active” in each case. For the same molecule, the IC50 result against Cytochrome P450 2A6 was “Not Active”. Further, the Ki result (in data set [1]; on Cytochrome P450 2A6) was “Not Active” in each case.
`C#C[C@]1(O)CC[C@H]2[C@@H]3CCC4=Cc5oncc5C[C@]4(C)[C@H]3CC[C@@]21C` [DANAZOL]: the IC50 result (in data set [1]; against Substance-P receptor; in data set [2]; on Melanocortin receptor 5; in data set [3]; in data set [4]) was “Not Active” throughout. Further, the IC50 entry against Cytochrome P450 2A6 is “Not Active”. The Ki entry (in data set [1]; at Cytochrome P450 2A6) was “Not Active” each time.
With `C[C@H](C(=O)O)c1cccc(C(=O)c2ccccc2)c1` [DEXKETOPROFEN], the half-maximal inhibitory concentration (IC50) entry (in data set [1]; at Substance-P receptor; in data set [2]; against Melanocortin receptor 5; in data set [3]; in data set [4]) was “Not Active” in each case. Further, the half-inhibitory concentration (IC50) result at Cytochrome P450 2A6 was “Not Active”. In addition, the Ki entry (in data set [1]; at Cytochrome P450 2A6) was “Not Active” throughout.
As for `CCn1cc(C(=O)O)c(=O)c2cc(F)c(N3CCNCC3)nc21` [ENOXACIN], the 50% inhibitory concentration (IC50) result (in data set [1]; against Substance-P receptor; in data set [2]; at Melanocortin receptor 5; in data set [3]; in data set [4]) was “Not Active” each time. Besides, the half-maximal inhibitory concentration (IC50) entry against Cytochrome P450 2A6 is “Not Active”. Moreover, the Ki result (in data set [1]; on Cytochrome P450 2A6) was “Not Active” each time.
As for `C#C[C@]1(O)CC[C@H]2[C@@H]3CCc4cc(O)ccc4[C@H]3CC[C@@]21C` [ETHINYL ESTRADIOL], the IC50 entry (in data set [1]; at Substance-P receptor; in data set [2]; against Melanocortin receptor 5; in data set [3]; in data set [4]) was “Not Active” each time. Further, the IC50 result at Cytochrome P450 2A6 is on record as “Not Active”. The Ki entry (in data set [1]; on Cytochrome P450 2A6) was “Not Active” each time.
`OCCO` [ETHYLENE GLYCOL]: the IC50 entry (in data set [1]; on Substance-P receptor; in data set [2]; against Melanocortin receptor 5; in data set [3]; in data set [4]) was “Not Active” in each case. In addition, on Cytochrome P450 2A6, the 50% inhibitory concentration (IC50) result was “Not Active”. For the same molecule, the Ki result (in data set [1]; on Cytochrome P450 2A6) was “Not Active” in each case.
As to `NC[C@@H]1O[C@H](O[C@H]2[C@@H](O)[C@H](O[C@@H]3[C@@H](O)[C@H](N)C[C@H](N)[C@H]3O[C@H]3O[C@H](CN)[C@@H](O)[C@H](O)[C@H]3N)O[C@@H]2CO)[C@H](N)[C@@H](O)[C@@H]1O` [FRAMYCETIN], the IC50 entry (in data set [1]; on Substance-P receptor; in data set [2]; against Melanocortin receptor 5; in data set [3]; in data set [4]) was “Not Active” throughout. Moreover, on Cytochrome P450 2A6, the half-inhibitory concentration (IC50) entry is reported as “Not Active”. The Ki entry (in data set [1]; on Cytochrome P450 2A6) was “Not Active” each time.
For `COc1ccccc1OCC(O)CO` (stereo unspecified) [GUAIFENESIN], the half-inhibitory concentration (IC50) result (in data set [1]; against Substance-P receptor; in data set [2]; against Melanocortin receptor 5; in data set [3]; in data set [4]) was “Not Active” throughout. The Ki entry in data set [1] is “Not Active”.

Values taken from ChEMBL document CHEMBL1909046, “DrugMatrix in vitro pharmacology data”.
